Earlier results as cited in paper doi:10.1101/2023.05.15.540887, “Comparative analysis of drug-like EP300/CREBBP acetyltransferase inhibitors” (bioRxiv, 2023).

Tests used:
Design in all cases: method as in ref 29 (a number printed in a supplementary file, which may have a reference list of its own: not looked up in the article's list)
K-562 = details: Leukemia K-562; highest log conc -4.0; NCI-60 screen data; cited from earlier work
A549/ATCC = details: Non-SmallCellLung A549/ATCC; highest log conc -4.0; NCI-60 screen data; cited from earlier work
NCI-H460 = details: Non-SmallCellLung NCI-H460; highest log conc -4.0; NCI-60 screen data; cited from earlier work
HCT-116 = details: Colon HCT-116; highest log conc -4.0; NCI-60 screen data; cited from earlier work
KM12 = details: Colon KM12; highest log conc -4.0; NCI-60 screen data; cited from earlier work
SW-620 = details: Colon SW-620; highest log conc -4.0; NCI-60 screen data; cited from earlier work
SF-539 = details: CNS SF-539; highest log conc -4.0; NCI-60 screen data; cited from earlier work
SNB-19 = details: CNS SNB-19; highest log conc -4.0; NCI-60 screen data; cited from earlier work
M14 = details: Melanoma M14; highest log conc -4.0; NCI-60 screen data; cited from earlier work
MDA-MB-435 = details: Melanoma MDA-MB-435; highest log conc -4.0; NCI-60 screen data; cited from earlier work
SK-MEL-28 = details: Melanoma SK-MEL-28; highest log conc -4.0; NCI-60 screen data; cited from earlier work
SK-MEL-5 = details: Melanoma SK-MEL-5; highest log conc -4.0; NCI-60 screen data; cited from earlier work
OVCAR-8 = details: Ovarian OVCAR-8; highest log conc -4.0; NCI-60 screen data; cited from earlier work
A498 = details: Renal A498; highest log conc -4.0; NCI-60 screen data; cited from earlier work
RXF393 = details: Renal RXF393; highest log conc -4.0; NCI-60 screen data; cited from earlier work
SN12C = details: Renal SN12C; highest log conc -4.0; NCI-60 screen data; cited from earlier work
UO-31 = details: Renal UO-31; highest log conc -4.0; NCI-60 screen data; cited from earlier work
DU-145 = details: Prostate DU-145; highest log conc -4.0; NCI-60 screen data; cited from earlier work
MCF7 = details: Breast MCF7; highest log conc -4.0; NCI-60 screen data; cited from earlier work
MDA-MB-231/ATCC = details: Breast MDA-MB-231/ATCC; highest log conc -4.0; NCI-60 screen data; cited from earlier work
T-47D = details: Breast T-47D; highest log conc -4.0; NCI-60 screen data; cited from earlier work

Compound | GI50 AVGDATA (K-562) | GI50 AVGDATA (A549/ATCC) | GI50 AVGDATA (NCI-H460) | GI50 AVGDATA (HCT-116) | GI50 AVGDATA (KM12) | GI50 AVGDATA (SW-620) | GI50 AVGDATA (SF-539) | GI50 AVGDATA (SNB-19) | GI50 AVGDATA (M14) | GI50 AVGDATA (MDA-MB-435) | GI50 AVGDATA (SK-MEL-28) | GI50 AVGDATA (SK-MEL-5) | GI50 AVGDATA (OVCAR-8) | GI50 AVGDATA (A498) | GI50 AVGDATA (RXF393) | GI50 AVGDATA (SN12C) | GI50 AVGDATA (UO-31) | GI50 AVGDATA (DU-145) | GI50 AVGDATA (MCF7) | GI50 AVGDATA (MDA-MB-231/ATCC) | further results
COC(=O)N1c2ccc3c(nc(Cc4ccccc4)n3[C@H]3CCC[C@H](C(=O)O)C3)c2CC[C@@H]1C [FT-6876] | -5.3 | -4.56 | -4.63 | -4.75 | -4.79 | -4.33 | -4.8 | -4.9 | -5.23 | -5.07 | -4.88 | -4.99 | -4.55 | -4.91 | -4.91 | -4.76 | -5.54 | -4.03 | -6.94 | -4.8 | GI50 AVGDATA (T-47D): -5.5
Cc1sc2c(c1C)C(c1ccc(Cl)cc1)=N[C@@H](CC(=O)OC(C)(C)C)c1nnc(C)n1-2 [JQ-1] | -7.24 | -6.5 | -6.22 | -6.51 | -6.02 | -5.39 | -6.34 | -6.38 | -6.11 | -6.87 | -6.4 | -6.47 | -6.21 | -7.21 | -6.13 | -5.71 | -7.52 | -5.07 | -7.22 | -6.52 | GI50 AVGDATA (T-47D): -6.67
CO[C@H]1CC[C@H](n2c([C@@H]3CCCC(=O)N3c3ccc(F)c(F)c3)nc3cc(-c4c(C)noc4C)ccc32)CC1 [inobrodib] | -5.55 | -4.93 | -4.58 | -5 | -4.86 | -4.72 | -5.01 | -5.03 | -5.73 | -5.1 | -4.93 | -5.24 | -4.99 | -5.22 | -5.32 | -4.99 | -5.79 | -4.77 | -6.2 | -5.07 | GI50 AVGDATA (T-47D): -5.69
